Measurements published in EP3502102A1, “STING INHIBITORS” (ECOLE POLYTECHNIQUE FEDERALE DE LAUSANNE (EPFL), priority 2017, dated 2019).
Where a chain is given by its changes, count along the chain named.

What was measured:
STING = biological target: T1, STING (Mus musculus, UniProt Q3TBT3); experiment: High-throughput screen and secondary screen in HEK293T cells expressing mCherry-STING, cdG-Syn versus RIG-I; assay type: cell-based; design: expressed in transfected cells; host or cells: HEK293T; conditions: primary screen and counter-screen; library compounds 10 µM
T1 sequence (Q3TBT3 1-378): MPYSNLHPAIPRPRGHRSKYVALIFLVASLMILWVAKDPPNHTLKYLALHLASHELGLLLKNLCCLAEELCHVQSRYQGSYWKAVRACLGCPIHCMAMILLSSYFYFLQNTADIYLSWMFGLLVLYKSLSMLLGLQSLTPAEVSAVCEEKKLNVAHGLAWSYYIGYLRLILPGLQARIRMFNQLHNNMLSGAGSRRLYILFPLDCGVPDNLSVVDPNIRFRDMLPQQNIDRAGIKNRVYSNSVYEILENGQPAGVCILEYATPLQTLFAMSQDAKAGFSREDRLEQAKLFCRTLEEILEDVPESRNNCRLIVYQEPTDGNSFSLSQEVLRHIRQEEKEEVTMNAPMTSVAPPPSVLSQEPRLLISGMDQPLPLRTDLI
Experimental: Reporter activity was measured 16 h after compound treatment. A nonlinear regression analysis was performed. […] Circles indicate substitutes compared to C-176. d, e, Chemical compounds from ([…]) in conjunction with IFN-• luciferase reporter, respectively. b, e, f, Values of inhibitor-treated cells were normalized to DMSO-treated cells. […] Cytokine levels were normalized to DMSO-treated control cells. A nonlinear regression analysis was performed for cGAMP stimulation. b, c, BMDMs were pre-treated with C-178 (0.25 µM) and stimulated with cGAMP, cyclic di-GMP, CMA, 90mer dsDNA or LPS for 3 h. The induction of Ifnb1 mRNA levels was assessed by RT-qPCR. d, Heatmaps of RNA sequencing analysis of BMDMs treated with DMSO or CMA and with or without addition of C-178. […] Reporter activity was measured 16 h after transfection and values were normalized to DMSO-treated control cells. c, BMDMs were treated with C-178 (0.25 µM) for 1 h, washed or left untreated and after an additional hour stimulated with cGAMP. […] Flag-STING was immunoprecipitated from whole cell lysate and analysed by autoradiography. In parallel, cell lysates were analysed by immunoblotting for p-TBK1 and STING. d, HEK293T cells expressing STING were treated as indicated (C-178 (1 µM)) and stimulated with CMA for 1.5 h. […] Depicted genes were measured by RT-qPCR.

Flag-STING [1] = biological target: T2, Flag-STING (Mus musculus, UniProt Q3TBT3, C91S); experiment: Protein mass spectrometry of immunoprecipitated Flag-STING; assay type: binding; conditions: Flag-STING C91S; 1µM
T2 construct: expressed in transfected cells; host or cells: HEK293T (lentiviral transduction, induced overnight)
T2 sequence (Q3TBT3 1-378 C91S): T1 sequence (Q3TBT3 1-378) with C91S

Flag-STING [2] = biological target: T3, Flag-STING (Mus musculus, UniProt Q3TBT3); experiment: as above; assay type: binding; conditions: Flag-STING; 1 µM, 30min
T3 construct: expressed in transfected cells; host or cells: HEK293T (lentiviral transduction, induced overnight)
T3 sequence (Q3TBT3 1-378): T1 sequence (Q3TBT3 1-378)

## O=C(Nc1ccc(I)cc1)c1ccc([N+](=O)[O-])o1 [C-176, N-(4-iodophenyl)-5-nitro-2-furamide]
STING
  IFN signal in response to cdG-Syn/STING versus RIG-I: selectively reduced the IFN signal in response to cdG-Syn/STING but not to RIG-I
Flag-STING [1]
  covalent binding to STING-C91S: absence of covalent binding
Flag-STING [2]
  covalent modification of STING, mass shift: irreversibly modify STING
